Values after ≈ are worked out from the molar mass of the structure shown.
Experiments:
Staphylococcus aureus [1] = test: Mutant prevention concentration aganist methicillin resistant Staphylococcus aureus-5023 done for 48 hr at 37 degree C with compound; format: functional
Mus musculus [2] = test: Efficacy against mice infected with MRSA-33 upon s.c. administration; format: functional; conditions: sc
Staphylococcus aureus [3] = test: Minimum inhibitory concentration against Staphylococcus aureus grlA mutant; format: functional
Staphylococcus aureus [4] = test: microbe, parasite or virus in culture
Streptococcus pyogenes = test: Minimum inhibitory concentration against Streptococcus pyogenes ATCC 19615; format: functional
[5] = Peak plasma concentration in phase I clinical studies at a i.v. dose of 600 mg; format: ADME, organism-based; parameters: dose 600 mg, route intravenous; conditions: human, iv
Staphylococcus aureus [6] = test: Mutant prevention concentration against methicillin resistant Staphylococcus aureus-32 done for 48 h at 37 degree C with compound; format: functional
Staphylococcus aureus [7] = test: Frequency of resistance emergence for methicillin resistant Staphylococcus aureus-5023; format: functional
Staphylococcus aureus [8] = test: Minimum inhibitory concentration against Staphylococcus aureus ISP 794 (wild type); format: functional
Phocaeicola vulgatus = test: Minimum inhibitory concentration against Bacteroides vulgatus ATCC 29327; format: functional
Staphylococcus aureus [9] = test: Minimum inhibitory concentration against Vancomycin intermediate Staphylococcus aureus MU 50; format: functional
Streptococcus pneumoniae [10] = test: microbe, parasite or virus in culture; conditions: ATCC 6303
[11] = tested on: Staphylococcus haemolyticus; test: Minimum inhibitory concentration against Staphylococcus haemolyticus ATCC 29970; format: functional
Escherichia coli = test: microbe, parasite or virus in culture; conditions: ATCC 25922
Rattus norvegicus = test: Amount of drug at which at 14 days of daily administration produced no venous blockage or phlebitis in rats; format: functional
Staphylococcus aureus [12] = test: Minimum inhibitory concentration against vancomycin-resistant Staphylococcus aureus (Hershey); format: functional
Staphylococcus aureus [13] = test: Frequency of resistance emergence for methicillin resistant Staphylococcus aureus-32; format: functional
Streptococcus sanguinis = test: Minimum inhibitory concentration against Streptococcus sanguis ATCC 10556; format: functional
Enterococcus faecalis = test: Minimum inhibitory concentration against Enterococcus faecalis ATCC 29212; format: functional
Streptococcus pneumoniae [14] = test: microbe, parasite or virus in culture; conditions: ATCC 49619
[15] = molecular target: DNA topoisomerase 4 subunit A (Staphylococcus aureus, UniProt P0C1U9)
Sequence of DNA topoisomerase 4 subunit A (P0C1U9 whole entry): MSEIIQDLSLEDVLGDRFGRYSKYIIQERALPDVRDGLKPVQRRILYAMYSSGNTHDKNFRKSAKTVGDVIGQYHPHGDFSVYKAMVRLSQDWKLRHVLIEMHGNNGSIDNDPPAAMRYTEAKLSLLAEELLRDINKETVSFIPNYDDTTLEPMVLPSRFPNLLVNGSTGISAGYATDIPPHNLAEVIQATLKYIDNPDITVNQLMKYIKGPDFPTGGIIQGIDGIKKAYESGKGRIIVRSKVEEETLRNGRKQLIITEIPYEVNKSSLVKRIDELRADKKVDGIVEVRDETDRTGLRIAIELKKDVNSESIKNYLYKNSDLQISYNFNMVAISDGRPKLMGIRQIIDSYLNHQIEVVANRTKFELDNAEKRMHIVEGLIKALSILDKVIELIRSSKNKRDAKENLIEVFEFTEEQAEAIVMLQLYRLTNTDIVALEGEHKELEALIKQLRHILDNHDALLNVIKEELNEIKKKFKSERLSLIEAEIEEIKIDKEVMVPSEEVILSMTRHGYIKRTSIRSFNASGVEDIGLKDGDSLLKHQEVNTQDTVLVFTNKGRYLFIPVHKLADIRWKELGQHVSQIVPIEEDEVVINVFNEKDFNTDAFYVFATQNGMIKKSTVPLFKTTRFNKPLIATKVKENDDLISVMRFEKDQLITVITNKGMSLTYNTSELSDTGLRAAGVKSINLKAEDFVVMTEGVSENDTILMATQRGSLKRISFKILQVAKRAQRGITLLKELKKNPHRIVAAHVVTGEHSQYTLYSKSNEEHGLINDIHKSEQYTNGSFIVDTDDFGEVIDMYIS

[16] = Half life in phase I clinical studies at a i.v. dose of 600 mg; format: ADME, organism-based; conditions: human, in vivo, iv
Streptococcus agalactiae = test: Minimum inhibitory concentration against Streptococcus agalactiae ATCC 13813; format: functional
Klebsiella pneumoniae = test: Minimum inhibitory concentration against Klebsiella pneumoniae ATCC 10031; format: functional
Staphylococcus aureus [17] = test: Minimum inhibitory concentration against vancomycin intermediate Staphylococcus aureus MU 3; format: functional
Staphylococcus aureus [18] = test: Minimum inhibitory concentration against Staphylococcus aureus gyrA/grlA double mutant; format: functional
Pseudomonas aeruginosa = test: microbe, parasite or virus in culture; conditions: ATCC 27853
Staphylococcus aureus [19] = test: Minimum inhibitory concentration against methicillin susceptible Staphylococcus aureus; format: functional; conditions: Staphylococcus aureus; read-out: MIC
Staphylococcus aureus [20] = test: Mutant prevention concentration aganist methicillin resistant Staphylococcus aureus-33 done for 48 hr at 37 degree C with compound; format: functional
Mus musculus [21] = test: Efficacy against mice infected with MRSA-32 upon s.c. administration; format: functional; conditions: MRSA-32, sc
Staphylococcus aureus [22] = test: microbe, parasite or virus in culture; remark: listed apart in the source
Mus musculus [23] = test: Efficacy against mice infected with Staphylococcus aureus ATCC 25923 upon s.c. administration; format: functional; conditions: sc
Staphylococcus aureus [24] = test: Minimum inhibitory concentration against Staphylococcus aureus gyrA mutant; format: functional
DNA gyrase = DNA gyrase (Staphylococcus aureus, UniProt P0A0K8+P20831)
Sequence of DNA gyrase (P0A0K8 whole entry): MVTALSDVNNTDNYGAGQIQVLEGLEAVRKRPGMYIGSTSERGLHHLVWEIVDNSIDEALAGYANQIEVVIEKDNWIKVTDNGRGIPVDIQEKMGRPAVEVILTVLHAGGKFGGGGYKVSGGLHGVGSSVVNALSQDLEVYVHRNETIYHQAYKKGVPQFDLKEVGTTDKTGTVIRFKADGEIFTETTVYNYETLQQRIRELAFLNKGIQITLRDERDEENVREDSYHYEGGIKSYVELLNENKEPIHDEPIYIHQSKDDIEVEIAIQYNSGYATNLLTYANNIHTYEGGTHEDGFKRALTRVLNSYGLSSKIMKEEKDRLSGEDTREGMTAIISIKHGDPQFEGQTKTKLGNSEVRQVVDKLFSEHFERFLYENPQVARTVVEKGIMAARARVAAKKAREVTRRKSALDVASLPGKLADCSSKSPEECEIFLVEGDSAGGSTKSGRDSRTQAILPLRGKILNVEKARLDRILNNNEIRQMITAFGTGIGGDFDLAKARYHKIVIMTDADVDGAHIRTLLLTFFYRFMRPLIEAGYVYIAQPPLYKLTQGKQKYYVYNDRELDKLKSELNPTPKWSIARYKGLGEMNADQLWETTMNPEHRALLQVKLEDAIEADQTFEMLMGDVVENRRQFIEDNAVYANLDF
Sequence of DNA gyrase (P20831 whole entry): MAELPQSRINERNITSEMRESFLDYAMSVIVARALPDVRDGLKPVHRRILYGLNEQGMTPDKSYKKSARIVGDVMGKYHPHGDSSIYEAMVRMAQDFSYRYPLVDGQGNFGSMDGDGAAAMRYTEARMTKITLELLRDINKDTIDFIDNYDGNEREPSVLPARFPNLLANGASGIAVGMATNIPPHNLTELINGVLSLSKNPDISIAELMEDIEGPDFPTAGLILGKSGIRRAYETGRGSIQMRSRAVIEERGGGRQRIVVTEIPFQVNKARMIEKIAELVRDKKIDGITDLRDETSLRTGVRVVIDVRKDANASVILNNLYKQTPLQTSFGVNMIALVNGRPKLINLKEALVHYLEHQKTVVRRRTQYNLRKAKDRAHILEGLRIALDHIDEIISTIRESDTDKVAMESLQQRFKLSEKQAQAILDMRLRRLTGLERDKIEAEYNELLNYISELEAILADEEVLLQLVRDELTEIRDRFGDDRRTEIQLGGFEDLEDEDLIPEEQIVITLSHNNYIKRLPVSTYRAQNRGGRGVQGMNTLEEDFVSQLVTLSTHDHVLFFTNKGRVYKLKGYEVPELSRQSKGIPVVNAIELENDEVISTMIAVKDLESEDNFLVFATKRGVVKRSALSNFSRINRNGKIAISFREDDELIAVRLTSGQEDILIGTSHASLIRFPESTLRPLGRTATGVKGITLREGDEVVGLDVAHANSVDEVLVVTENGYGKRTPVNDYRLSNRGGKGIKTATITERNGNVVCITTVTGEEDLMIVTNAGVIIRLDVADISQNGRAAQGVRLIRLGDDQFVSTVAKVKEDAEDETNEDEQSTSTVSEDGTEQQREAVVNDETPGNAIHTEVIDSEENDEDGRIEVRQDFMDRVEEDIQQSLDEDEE

[25] = tested on: Staphylococcus saprophyticus; test: Minimum inhibitory concentration against Staphylococcus saprophyticus ATCC 15305; format: functional
Mus musculus [26] = test: Protection of mice infected with MRSA-32 cell suspension after oral administration of compound; format: functional; conditions: Mus musculus, MRSA-32, po; read-out: ED50
Staphylococcus aureus [27] = test: microbe, parasite or virus in culture; remark: listed apart in the source
Staphylococcus aureus [28] = test: Minimum inhibitory concentration against Staphylococcus aureus ATCC 25923; format: functional
Staphylococcus aureus [29] = test: Frequency of resistance emergence for methicillin resistant Staphylococcus aureus-33; format: functional
Staphylococcus aureus [30] = test: Minimum inhibitory concentration against vancomycin intermediate Staphylococcus aureus MU 50; format: functional
[31] = molecular target: T1, DNA gyrase (Staphylococcus aureus) (UniProt P0A0K8+P20831)
T1 sequence (P0A0K8 2-644 limits assumed): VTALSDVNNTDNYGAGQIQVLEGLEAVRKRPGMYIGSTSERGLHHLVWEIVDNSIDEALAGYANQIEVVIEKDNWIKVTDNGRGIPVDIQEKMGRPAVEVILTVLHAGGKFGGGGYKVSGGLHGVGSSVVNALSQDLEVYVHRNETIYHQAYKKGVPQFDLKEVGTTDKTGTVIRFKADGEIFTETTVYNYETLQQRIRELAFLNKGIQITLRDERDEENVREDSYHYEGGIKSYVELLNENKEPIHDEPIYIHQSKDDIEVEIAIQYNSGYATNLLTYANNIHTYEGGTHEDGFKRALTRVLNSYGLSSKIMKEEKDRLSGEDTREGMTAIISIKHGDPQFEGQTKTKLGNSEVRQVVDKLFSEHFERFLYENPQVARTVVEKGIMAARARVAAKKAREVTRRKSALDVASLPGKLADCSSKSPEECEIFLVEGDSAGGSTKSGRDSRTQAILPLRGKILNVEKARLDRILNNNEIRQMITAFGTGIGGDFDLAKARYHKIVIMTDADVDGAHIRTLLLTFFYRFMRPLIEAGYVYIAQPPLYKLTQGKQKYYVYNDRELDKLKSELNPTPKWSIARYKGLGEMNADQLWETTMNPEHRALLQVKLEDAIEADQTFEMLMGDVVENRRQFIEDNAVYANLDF
T1 sequence (P20831 whole entry partner): as the sequence (P20831 whole entry) above

[32] = molecular target: DNA topoisomerase 4 subunit A (Staphylococcus aureus) (UniProt P0C1U9)
Sequence of DNA topoisomerase 4 subunit A (Staphylococcus aureus) (P0C1U9 whole entry): as the sequence (P0C1U9 whole entry) above

[33] = molecular target: DNA topoisomerase 4 subunit A (Staphylococcus aureus) (UniProt P0C1U9); remark: listed apart in the source
[34] = molecular target: T1, DNA gyrase (Staphylococcus aureus); remark: listed apart in the source
physchem [35] = conditions: octanol/water, pH 7.4
Staphylococcus aureus [36] = test: Ratio of MPC to MIC aganist methicillin resistant Staphylococcus aureus-32; format: functional
physchem [37] = conditions: octanol/water, pH 2
physchem [38] = test: physchem
Staphylococcus aureus [39] = test: Ratio of MPC to MIC against methicillin resistant Staphylococcus aureus-33; format: functional
Staphylococcus aureus [40] = test: Ratio of MPC to MIC against methicillin resistant Staphylococcus aureus-5023; format: functional
physchem [41] = test: physchem; remark: listed apart in the source

SMILES	MPC (Staphylococcus aureus [1]) [µg/mL]	MIC (Staphylococcus aureus [3]) [µg/mL]	MIC (Staphylococcus aureus [4]) [µg/mL]	MIC (Streptococcus pyogenes) [µg/mL]	MPC (Staphylococcus aureus [6]) [µg/mL]	FRE (Staphylococcus aureus [7])	MIC (Phocaeicola vulgatus) [µg/mL]	MIC (Streptococcus pneumoniae [10]) [µg/mL]	MIC [11] [µg/mL]	MIC (Escherichia coli) [µg/mL]	NOEL (Rattus norvegicus) [mg/kg]	MIC (Staphylococcus aureus [12]) [µg/mL]	FRE (Staphylococcus aureus [13])	MIC (Streptococcus sanguinis) [µg/mL]	MIC (Enterococcus faecalis) [µg/mL]	MIC (Streptococcus agalactiae) [µg/mL]	MIC (Klebsiella pneumoniae) [µg/mL]	MIC (Pseudomonas aeruginosa) [µg/mL]	MIC [25] [µg/mL]	MIC (Staphylococcus aureus [28]) [µg/mL]	other results
C[C@H]1CCc2c(N3CCC(O)CC3)c(F)cc3c(=O)c(C(=O)O)cn1c23.N=C(N)NCCC[C@H](N)C(=O)O.O.O.O.O	2	0.032	1	0.06	2	<4.1e-07	0.5	0.12	0.015	0.12	250	0.5	<6.51e-09	0.25	0.25	0.12	0.008	4	0.06	0.03	ED50 (Mus musculus [2]): 38.3 mg/kg; Cmax [5]: 4000 ng/mL; MIC (Staphylococcus aureus [8]): 0.016 µg/mL; MIC (Staphylococcus aureus [9]): 1 µg/mL; MIC (Streptococcus pneumoniae [14]): 0.12 µg/mL; IC50 [15]: 8.24 µM; half-life [16]: 6 h; MIC (Staphylococcus aureus [17]): 2 µg/mL; MIC (Staphylococcus aureus [18]): 1 µg/mL; MIC (Staphylococcus aureus [19]): 0.03 µg/mL; MPC (Staphylococcus aureus [20]): 2 µg/mL; ED50 (Mus musculus [21]): 27.8 mg/kg; MIC (Staphylococcus aureus [22]): 1 µg/mL; ED50 (Mus musculus [23]): 0.59 mg/kg; MIC (Staphylococcus aureus [24]): 0.032 µg/mL; IC50 (DNA gyrase): 8.24 µM; ED50 (Mus musculus [26]): 93.6 mg/kg; MIC (Staphylococcus aureus [27]): 1 µg/mL; FRE (Staphylococcus aureus [29]): <3.51e-09
C[C@H]1CCc2c(N3CCC(O)CC3)c(F)cc3c(=O)c(C(=O)[O-])cn1c23.[Na+]											<250										MIC (Staphylococcus aureus [19]): 0.03 µg/mL; ED50 (Mus musculus [26]): 60 mg/kg
CCCCCCCCCC(=O)N[C@@H](Cc1c[nH]c2ccccc12)C(=O)N[C@H](CC(N)=O)C(=O)N[C@@H](CC(=O)O)C(=O)N[C@@H]1C(=O)NCC(=O)N[C@@H](CCCN)C(=O)N[C@@H](CC(=O)O)C(=O)N[C@H](C)C(=O)N[C@@H](CC(=O)O)C(=O)NCC(=O)N[C@H](CO)C(=O)N[C@@H]([C@H](C)CC(=O)O)C(=O)N[C@@H](CC(=O)c2ccccc2N)C(=O)O[C@@H]1C			0.25 (≈ 0.154 µM)									0.5 (≈ 0.309 µM)									MIC (Staphylococcus aureus [30]): 0.5 µg/mL (≈ 0.309 µM); MIC (Staphylococcus aureus [17]): 0.25 µg/mL (≈ 0.154 µM); MIC (Staphylococcus aureus [22]): 0.25 µg/mL (≈ 0.154 µM); MIC (Staphylococcus aureus [27]): 250 µg/mL (≈ 154 µM)
C[C@H]1CCc2c(N3CCC(O)CC3)c(F)cc3c(=O)c(C(=O)O)cn1c23																					CC50 [31]: 5 µg/mL (≈ 13.9 µM); CC50 [32]: 2.5 µg/mL (≈ 6.94 µM)
O=C(O)c1cn(C2CC2)c2cc(N3CCNCC3)c(F)cc2c1=O [CIPROFLOXACIN]		1 (≈ 3.02 µM)		0.5 (≈ 1.51 µM)			8 (≈ 24.1 µM)		0.25 (≈ 0.754 µM)	< 0.008				2 (≈ 6.04 µM)	2 (≈ 6.04 µM)	2 (≈ 6.04 µM)	< 0.008	1 (≈ 3.02 µM)	0.5 (≈ 1.51 µM)	1 (≈ 3.02 µM)	CC50 [33]: 2.5 µg/mL (≈ 7.54 µM); CC50 [34]: 50 µg/mL (≈ 151 µM)
COc1c(N2CCNC(C)C2)c(F)cc2c(=O)c(C(=O)O)cn(C3CC3)c12 (stereo not given) [GATIFLOXACIN]	8			0.25 (≈ 0.666 µM)	8	3.51e-06	0.5 (≈ 1.33 µM)	0.5 (≈ 1.33 µM)	0.06 (≈ 0.16 µM)	0.03 (≈ 0.0799 µM)			0.000451	0.5 (≈ 1.33 µM)	0.25 (≈ 0.666 µM)	0.25 (≈ 0.666 µM)	0.008 (≈ 0.0213 µM)	4 (≈ 10.7 µM)	0.25 (≈ 0.666 µM)	0.1 (≈ 0.266 µM)	logD (physchem [35]): -0.79; MPC/MIC (Staphylococcus aureus [36]): 2; logD (physchem [37]): -1.14; MIC (Streptococcus pneumoniae [14]): 0.5 µg/mL (≈ 1.33 µM); pKa (physchem [38]): 9.82; MPC/MIC (Staphylococcus aureus [39]): 3.5; MPC (Staphylococcus aureus [20]): 14 µg/mL; MPC/MIC (Staphylococcus aureus [40]): 2; pKa (physchem [41]): 5.97; FRE (Staphylococcus aureus [29]): 0.0041
